The record followed here is ChEMBL document CHEMBL5260825, “Chemical Constituents of Bryophytes: Structures and Biological Activity” (J Nat Prod, 2018).

≈ marks a conversion by molar mass, not a printed value. Where “and” joins values, the source holds several entries; their conditions need not be identical. Equal values may be shown once.

In series [1] the test system is RAW264.7. Kind of series: Inhibition of LPS-induced NO production in mouse RAW264.7 cells incubated for 24 hrs by Griess reagent based assay. The class given is functional, cell-based. The conditions noted are these: RAW264.7, 24 h. (Nitrite, measured by Griess reagent, commonly stands in for NO production.)
For series [2], the system named is Bacillus subtilis. Kind of series: Antibacterial activity against Bacillus subtilis assessed as inhibition of bacterial growth. The class given is functional.
Series [3] has as its system HL-60. Briefly: Antiproliferative activity against human HL-60 cells assessed as cell growth inhibition. The class given is functional, cell-based.
Series [4] is described as follows: Antioxidant activity assessed as DPPH radical scavenging activity. In kind it is functional. A general note: DPPH is a stable violet radical that fades when it is reduced.
The test system of series [5] is Trypanosoma brucei brucei. Briefly: […] activity against Trypanosoma brucei brucei GUTat 3.1 assessed as inhibition of parasite growth measured after 72 hrs by alamar blue assay. In kind it is functional, organism-based. A general note: The colour change of resazurin is a common sign of viable cells or microbes.
Series [6] relates to Candida albicans. Kind of series: Antifungal activity against Candida albican ATCC10231 assessed as inhibition of fungal growth by measuring minimal inhibitory quantity by microdilution method. In kind it is functional.
Series [7] has as its system Candida albicans. Kind of series: Antifungal activity against Candida albican ATCC10231 assessed as inhibition of fungal growth by microdilution method. In kind it is functional.
Series [8] relates to Candida albicans. Briefly: Antifungal activity against Candida albicans assessed as inhibition of fungal growth by MTT method. The class given is functional.
Series [9] has as its system M14. Briefly: Antiproliferative activity against human M14 cells assessed as cell growth inhibition. In kind it is functional.
For series [10], the system named is K562. Briefly: Antiproliferative activity against human K562 cells assessed as cell growth inhibition. The class given is functional.
Series [11] can be described thus: Cytotoxicity against mouse 3T3 cells assessed as reduction in cell viability. In kind it is toxicity, cell-based. The settings on record: NIH3T3 cells.
Series [12] has as its system DU-145. Briefly: Antiproliferative activity against human DU-145 cells assessed as cell growth inhibition. The class given is functional.
The test system of series [13] is MCF7. Briefly: Antiproliferative activity against human MCF7 cells assessed as cell growth inhibition. In kind it is functional, cell-based.
The test system of series [14] is HT-29. Briefly: Antiproliferative activity against human HT-29 cells assessed as cell growth inhibition. In kind it is functional, cell-based.
Series [15] has as its system Cladosporium cucumerinum. Kind of series: Antifungal activity against Cladosporium cucumerinum assessed as inhibition of microbial growth by bioautographic TLC method. In kind it is functional.
Series [16] concerns Candida albicans. Kind of series: Antifungal activity against Candida albicans assessed as inhibition of fungal growth by MTT assay. The class given is functional.
In series [17] the test system is KB. Kind of series: Antiproliferative activity against human KB cells assessed as cell growth inhibition. The class given is functional, cell-based.
The test system of series [18] is Human immunodeficiency virus 1. Briefly: Antiviral activity against HIV-1. The class given is functional, organism-based.
In series [19] the target is Cyclooxygenase (Homo sapiens, UniProt P35354+P23219). Briefly: Inhibition of COX (unknown origin). In kind it is protein assay.
Series [20] deals with DNA polymerase beta (Homo sapiens, UniProt P06746). Briefly: Inhibition of DNA polymerase beta (unknown origin).
Series [21] deals with Panel NCI-60 (60 carcinoma cell lines). Briefly: Antiproliferative activity against human Panel NCI-60 (60 carcinoma cell lines) assessed as cell growth inhibition. The class given is functional.
In series [22] the test system is P388. Briefly: Antiproliferative activity against mouse P388 cells assessed as cell growth inhibition. In kind it is functional, cell-based.
Series [23] concerns the target T1, Polyunsaturated fatty acid 5-lipoxygenase (Homo sapiens) (UniProt P09917).
T1 sequence (whole entry): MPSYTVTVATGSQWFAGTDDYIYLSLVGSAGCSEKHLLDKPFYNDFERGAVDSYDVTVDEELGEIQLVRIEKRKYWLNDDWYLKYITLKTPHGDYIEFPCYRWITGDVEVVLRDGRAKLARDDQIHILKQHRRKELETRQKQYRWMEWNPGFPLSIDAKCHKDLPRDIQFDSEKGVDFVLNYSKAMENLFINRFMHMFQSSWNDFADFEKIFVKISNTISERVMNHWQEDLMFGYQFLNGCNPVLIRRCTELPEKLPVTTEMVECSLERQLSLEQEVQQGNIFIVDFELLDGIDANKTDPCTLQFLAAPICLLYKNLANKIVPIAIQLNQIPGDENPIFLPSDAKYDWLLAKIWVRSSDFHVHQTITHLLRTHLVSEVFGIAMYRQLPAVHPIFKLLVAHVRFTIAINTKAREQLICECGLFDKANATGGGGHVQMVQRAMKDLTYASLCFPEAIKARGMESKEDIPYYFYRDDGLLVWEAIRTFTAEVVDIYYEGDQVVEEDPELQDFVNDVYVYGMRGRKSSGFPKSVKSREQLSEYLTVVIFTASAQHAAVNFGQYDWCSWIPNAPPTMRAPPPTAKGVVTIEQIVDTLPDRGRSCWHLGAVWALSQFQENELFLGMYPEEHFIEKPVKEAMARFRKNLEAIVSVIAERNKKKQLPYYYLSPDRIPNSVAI
Kind of series: Inhibition of ALOX5 (unknown origin) at 0.000001 M relative to control. The conditions noted are these: dose 1 µM.

Series [24] relates to A549. Briefly: Antiproliferative activity against human A549 cells assessed as cell growth inhibition. In kind it is functional. The conditions noted are these: read-out: ED50 (the source's name).
Series [25] concerns RPMI-7951. Briefly: Antiproliferative activity against human RPMI-7951 cells assessed as cell growth inhibition. The class given is functional. The conditions noted are these: read-out: ED50 (the source's name).
The target in series [26] is Procathepsin L (Homo sapiens) (UniProt P07711). Kind of series: Inhibition of Cathepsin L (unknown origin) at 0.00001 M relative to control. The conditions noted are these: dose 10 µM.
The target of series [27] is Cathepsin B (Homo sapiens) (UniProt P07858). Briefly: Inhibition of Cathepsin B (unknown origin) at 0.00001 M relative to control. The conditions noted are these: dose 10 µM.
Series [28] has as its system Staphylococcus aureus. Kind of series: Antibacterial activity against Staphylococcus aureus assessed as inhibition of bacterial growth by agar diffusion method. In kind it is functional.
In series [29] the test system is U-251. Briefly: Antiproliferative activity against human U-251MG cells assessed as cell growth inhibition. The class given is functional. The settings on record: read-out: ED50 (the source's name).
Series [30] deals with Pyricularia oryzae. Kind of series: Antifungal activity against Pyricularia oryzae assessed as inhibition of microbial growth. The class given is functional, organism-based.
For series [31], the system named is Trichophyton mentagrophytes. Kind of series: Antifungal activity against Trichophyton mentagrophytes assessed as inhibition of microbial growth. In kind it is functional.
Series [32] can be described thus: Toxicity in brine shrimp assessed as lethality. The settings on record: artemia salina.

Sequence of Procathepsin L (Homo sapiens) (P07711 114-333 limits assumed): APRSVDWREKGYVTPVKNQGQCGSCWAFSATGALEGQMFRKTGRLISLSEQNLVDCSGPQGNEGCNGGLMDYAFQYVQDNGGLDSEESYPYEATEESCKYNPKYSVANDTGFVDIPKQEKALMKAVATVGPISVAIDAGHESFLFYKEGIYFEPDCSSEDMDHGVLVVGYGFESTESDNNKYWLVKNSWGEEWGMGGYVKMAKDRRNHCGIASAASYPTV

`CC1(C)CCC[C@]1(C)c1cc(CCc2cc(O)c(O)c([C@@]3(C)CCCC3(C)C)c2)cc(O)c1O`: the half-maximal inhibitory concentration (IC50) in series [1] was 4.1 µM; in [3], 2.5 µg/mL (≈ 5.36 µM); in [4], 2 µg/mL (≈ 4.29 µM). The MIC in series [2] came to 2 µg/mL (≈ 4.29 µM).

As for `CC1=CCC[C@]2(C)CC[C@@H](C(C)(C)O)C[C@@H]12`, the EC50 in series [5] (GUTat 3.1, 72 h, read-out: EC50) is 0.45 µM.

Turning to `Cc1ccc(C(=O)Nc2ccc(S(=O)(=O)O)c3cc(S(=O)(=O)O)cc(S(=O)(=O)O)c23)cc1NC(=O)c1cccc(NC(=O)Nc2cccc(C(=O)Nc3cc(C(=O)Nc4ccc(S(=O)(=O)O)c5cc(S(=O)(=O)O)cc(S(=O)(=O)O)c45)ccc3C)c2)c1` [SURAMIN], the EC50 in series [5] (GUTat 3.1, time 72 hrs, read-out: ED50 (the source's name)) came to 1.5 µg/mL.

On to `Oc1ccc2c(c1)CCc1ccc(O)c(c1)Oc1ccc(cc1)CCc1cccc(c1)O2` [PTYCHANOL A], for which the MIC in series [6] came out at 0.25 µg; in series [7], 16 µg/mL.

`COC(=O)c1c(C)cc(O)c(C)c1O` [ATRARIC ACID]: the MIC in [8] is 0.6 µg/mL (≈ 3.06 µM).

`CC(=O)O[C@H]1OC=C(CO)[C@@H]2[C@@H]3[C@H](CC[C@@]4(CO4)[C@H]12)C3(C)C`: the GI50 in series [9] was found to be 6.4 µM; in series [10], 8.7 µM; in [11] it was 3.8 µM; in series [12] it was 4.8 µM; in series [13] it was 9 µM; in [14] it was 6.1 µM.

In the case of `C=C1CC[C@H]2C(=C)CC[C@@H]3[C@H](OC(=O)[C@@H]3C)[C@@H]12`, the MIC in series [15] was 3 µg/mL.

In the case of `Oc1cc2cc(c1O)Oc1ccc(cc1)CCc1ccc(O)c(O)c1Oc1cccc(c1)CC2` [MARCHANTIN B], the MID in [16] was 4 µg/mL. In addition, the IC50 was 3.2 µM in series [17], 5.3 µg/mL (≈ 11.6 µM) in [18], 55.9 µM in [19] and 14.4 µM in series [20].

As to `C=C1C(=O)[C@]23O[C@@H]2[C@H]1CCC(=O)[C@]1(C)CCCC(C)(C)[C@H]1C[C@H]3O`, the GI50 in series [21] was 2.5 µM. Also, in [22], the GI50 was 0.27 µg/mL and 800 nM; the IC50 amounted to 0.27 µg/mL (≈ 0.812 µM).

Regarding `C=C1CC[C@@H]2[C@H]1[C@H]1OC(=O)C(=C)[C@@H]1CC[C@@]2(C)OC(C)=O`, the MIC in series [15] worked out at 10 µg/mL.

In series [23], `Oc1cc2cc(c1O)Oc1ccc(cc1)CCc1cccc(O)c1Oc1cccc(c1)CC2O` (configuration not stated) returned an inhibition of 4%. Further, the IC50 in [18] was 5.3 µg/mL (≈ 11.6 µM); in [20] it was 14.4 µM.

With `COc1cc(OC)c2c3c1-c1c(O)cccc1[C@@H]1Oc4ccccc4[C@@H](C[C@@H]2OC)[C@@H]31`, the EC50 in series [24] and in series [25] was 1 µg/mL (≈ 2.4 µM) each time.

On to `C=C1C(=O)O[C@@H]2[C@H]3C(C)=C[C@H]4OC(=O)C(=CC[C@@H]12)[C@@H]34`, for which the inhibition came to 13.4% in series [26] and 24.7% in series [27].

For `Oc1ccc2cc1Oc1ccc(cc1)CCc1cccc(c1)Oc1c(O)cccc1CC2`, the inhibition in series [26] amounted to 95%; in series [27], 93%.

For `Cc1cc([C@@]2(C)CCCC2(C)C)c(O)c(O)c1Cc1cc(O)c(O)c([C@@]2(C)CCCC2(C)C)c1`, the IC50 in series [1] was found to be 4.1 µM; in [3], 2.4 µg/mL (≈ 5.14 µM); in series [4], 2.7 µg/mL (≈ 5.79 µM). For the same compound, the MIC in series [2] was 2 µg/mL (≈ 4.29 µM). Moreover, in series [28], the “diameter of the inhibition zone (DIZ)” value was 13 mm.

For the compound `COc1cc(OC)c2c3c1C(=O)C[C@@H]1c4ccccc4O[C@@H](c4cccc(O)c4-2)[C@H]31`, the values for the EC50 in [29], in series [25] and in series [14] (read-out: ED50 (the source's name)) were 2 µg/mL (≈ 4.99 µM), 1 µg/mL (≈ 2.5 µM) and 1 µg/mL (≈ 2.5 µM), respectively.

`Cc1ccc2c(c1O)[C@@H](C(C)C)CC[C@H]2C`: the IC50 in [30] worked out at 1.7 µg/mL.

Take `Oc1cc2ccc1Oc1cccc(c1)CCc1ccc(O)c(c1)Oc1ccc(cc1)CC2`: the MID in [16] was determined as 0.25 µg/mL. The MIC turned out to be 1.5 µg/mL (≈ 3.53 µM) in series [2] and 1 µg/mL in series [31].

`CC(=O)N1CCN(c2ccc(OCC3COC(Cn4ccnc4)(c4ccc(Cl)cc4Cl)O3)cc2)CC1` (configuration not stated) [KETOCONAZOLE]: the LC50 in [32] worked out at 14.9 ppm.

The term IC50 denotes the concentration that inhibits the measured activity by half. What is called GI50 is the concentration giving 50% growth inhibition. What is called inhibition is the relative decrease from the control value, in per cent. For orientation: LC50 means the concentration lethal to half of the exposed cells or organisms.
